# Target: T1, human CCR10 (Homo sapiens, UniProt P46092)
# T1 construct: expressed in transfected cells; host or cells: KJMGER8 cells (Namalwa cell-derived line), beta-estradiol-induced; hCCR10G16 cells
# T1 sequence (P46092 1-362): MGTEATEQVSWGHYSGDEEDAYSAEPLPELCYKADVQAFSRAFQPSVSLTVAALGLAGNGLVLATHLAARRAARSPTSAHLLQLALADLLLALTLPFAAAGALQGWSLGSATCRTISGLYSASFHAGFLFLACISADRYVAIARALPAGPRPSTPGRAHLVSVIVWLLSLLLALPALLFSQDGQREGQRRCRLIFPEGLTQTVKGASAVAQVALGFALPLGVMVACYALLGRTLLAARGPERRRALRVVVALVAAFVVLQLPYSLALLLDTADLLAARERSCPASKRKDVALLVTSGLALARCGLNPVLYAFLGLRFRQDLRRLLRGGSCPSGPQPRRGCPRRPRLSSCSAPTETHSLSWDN
# Assay: CCR10 antagonistic effect: calcium assay of human CCR10 (CTACK-induced increase of intracellular calcium in hCCR10G16 cells)
# Assay type: cell-based
# Conditions: at a concentration of not more than 1000 nmol/L; human CCR10-expressing hCCR10G16 cells, 300 nmol/L CTACK added; read-out: inhibition of increase in the calcium ion concentration
# Method in brief: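 Inhibition of CTACK-evoked calcium flux (max minus min Fluo-3 fluorescence over ~5 min, FDSS) was calculated against control in β-estradiol-induced human CCR10/Gα16 KJMGER8 cells, after 30 min compound preincubation at 37 °C; CTACK added from a 300 nmol/L solution.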
row,SMILES,inhibition at up to 1 µM [%]
1,"Cc1ccc(Nc2c(C(=O)N3CCC(c4ccc(F)cc4)CC3)cnc(S(N)(=O)=O)c2Cl)cc1Cl [Compound 181, 3-chloro-4-(3-chloro-4-methylphenylamino)-5-[4-(4-fluorophenyl)piperidine-1-carbonyl]pyridine-2-sulfonamide]",≥ 50
2,"Cc1cc(F)ccc1Nc1cc(S(=O)(=O)NC(=O)OC(C)C)ncc1C(=O)N1CCC(c2ccc(F)cc2)CC1 [Compound 175, isopropyl 4-(4-fluoro-2-methylphenylamino)-5-[4-(4-fluorophenyl)piperidine-1-carbonyl]pyridin-2-ylsulfonylcarbamate]",≥ 50
3,"CC(=O)C1(c2ccc(F)cc2)CCN(C(=O)c2cnc(S(N)(=O)=O)c(Cl)c2Nc2cccc(C)c2)CC1 [Compound 216, 5-[4-acetyl-4-(4-fluorophenyl)piperidine-1-carbonyl]-3-chloro-4-(m-tolylamino)pyridine-2-sulfonamide]",≥ 50
4,"CNC(=O)C1CCCN1S(=O)(=O)c1cc(Nc2ccc(F)cc2C)c(C(=O)N2CCC(c3ccc(F)cc3)CC2)cn1 (stereo not shown) [Compound 117, 1-{4-(4-fluoro-2-methylphenylamino)-5-[4-(4-fluorophenyl)piperidine-1-carbonyl]pyridin-2-ylsulfonyl}-N-methylpyrrolidine-2-carboxamide]",≥ 50
5,"Cc1c(S(N)(=O)=O)ncc(C(=O)N2CCC(c3ccc(F)cc3)CC2)c1NCC1CCOCC1 [Compound 214, 5-[4-(4-fluorophenyl)piperidine-1-carbonyl]-3-methyl-4-[(tetrahydro-2H-pyran-4-yl)methylamino]pyridine-2-sulfonamide]",≥ 50
6,"COC1(c2ccc(F)cc2)CCN(C(=O)c2cnc(S(N)(=O)=O)c(Cl)c2Nc2cccc(Cl)c2)CC1 [Compound 306, 3-chloro-4-(3-chlorophenylamino)-5-[4-(4-fluorophenyl)-4-methoxypiperidine-1-carbonyl]pyridine-2-sulfonamide]",≥ 50
7,"Cn1ncc2cc(Nc3c(C(=O)N4CCC(c5ccc(F)cc5)CC4)cnc(S(N)(=O)=O)c3Cl)ccc21 [Compound 242, 3-chloro-5-[4-(4-fluorophenyl)piperidine-1-carbonyl]-4-(1-methyl-1H-indazol-5-ylamino)pyridine-2-sulfonamide]",≥ 50
8,"COc1ccc(NS(=O)(=O)c2ncc(C(=O)N3CCC(c4ccc(F)cc4)CC3)c(Nc3ccc(F)cc3C)c2Cl)cc1 [Compound 38, 3-chloro-4-(4-fluoro-2-methylphenylamino)-5-[4-(4-fluorophenyl)piperidine-1-carbonyl]-N-(4-methoxyphenyl)pyridine-2-sulfonamide]",≥ 50
9,"Cc1c(S(N)(=O)=O)ncc(C(=O)N2CCN(c3ccc(F)cc3)C(=O)C2)c1NCc1ccccc1 [Compound 253, 4-(benzylamino)-5-[4-(4-fluorophenyl)-3-oxopiperazine-1-carbonyl]-3-methylpyridine-2-sulfonamide]",≥ 50
10,"Cc1cc(Cl)ccc1Nc1c(C(=O)N2CCC(c3ccc(F)cc3)CC2)cnc(S(N)(=O)=O)c1C [Compound 196, 4-(4-chloro-2-methylphenylamino)-5-[4-(4-fluorophenyl)piperidine-1-carbonyl]-3-methylpyridine-2-sulfonamide]",≥ 50
11,"NS(=O)(=O)c1cc(Nc2cc(F)c(Cl)cc2Cl)c(C(=O)N2CCC(c3ccc(F)cc3)CC2)cn1 [Compound 71, 4-(2,4-dichloro-5-fluorophenylamino)-5-[4-(4-fluorophenyl)piperidine-1-carbonyl]pyridine-2-sulfonamide]",≥ 50
12,"NS(=O)(=O)c1ncc(C(=O)N2CCC(c3ccc(F)cc3)CC2)c(N[C@H]2C[C@H]3CC[C@@H]2C3)c1Cl [Compound 236, 4-((1R,2S,4S)-bicyclo[2.2.1]heptan-2-ylamino)-3-chloro-5-[4-(4-fluorophenyl)piperidine-1-carbonyl]pyridine-2-sulfonamide]",≥ 50

# The next lines start with the values.
row,inhibition at up to 1 µM [%],SMILES
1,≥ 50,"NS(=O)(=O)c1cc(Nc2ccc(Cl)cc2)c(C(=O)N2CCC(c3ccc(F)cc3)CC2)cn1 [Compound 82, 4-(4-chlorophenylamino)-5-[4-(4-fluorophenyl)piperidine-1-carbonyl]pyridine-2-sulfonamide]"
2,≥ 50,"Cc1c(S(N)(=O)=O)ncc(C(=O)N2CC(c3ccc(F)cc3)C2)c1NCc1ccccc1 [Compound 284, 4-(benzylamino)-5-[3-(4-fluorophenyl)azetidine-1-carbonyl]-3-methylpyridine-2-sulfonamide]"
3,≥ 50,"Cc1cnc(C)c(Nc2c(C(=O)N3CCC(c4ccc(F)cc4)CC3)cnc(S(N)(=O)=O)c2Cl)c1 [Compound 326, 3-chloro-4-(2,5-dimethylpyridin-3-ylamino)-5-[4-(4-fluorophenyl)piperidine-1-carbonyl]pyridine-2-sulfonamide]"
4,≥ 50,"CSc1nccc(NS(=O)(=O)c2cc(Nc3ccc(F)cc3C)c(C(=O)N3CCC(c4ccc(F)cc4)CC3)cn2)n1 [Compound 150, 4-(4-fluoro-2-methylphenylamino)-5-[4-(4-fluorophenyl)piperidine-1-carbonyl]-N-[2-(methylthio)pyrimidin-4-yl]pyridine-2-sulfonamide]"
5,≥ 50,"Cc1c(Nc2cc(S(N)(=O)=O)ncc2C(=O)N2CCC(c3ccc(F)cc3)CC2)ccc(Cl)c1F [Compound 59, 4-(4-chloro-3-fluoro-2-methylphenylamino)-5-[4-(4-fluorophenyl)piperidine-1-carbonyl]pyridine-2-sulfonamide]"
6,≥ 50,"NS(=O)(=O)c1ncc(C(=O)N2CCC(c3ccc(F)cc3)CC2)c(NC(=O)c2ccccc2)c1Cl [Compound 211, N-{3-chloro-5-[4-(4-fluorophenyl)piperidine-1-carbonyl]-2-sulfamoylpyridin-4-yl}benzamide]"
7,≥ 50,"N#Cc1ccc([N+](=O)[O-])cc1Nc1c(C(=O)N2CCC(c3ccc(F)cc3)CC2)cnc(S(N)(=O)=O)c1Cl [Compound 322, 3-chloro-4-(2-cyano-5-nitrophenylamino)-5-[4-(4-fluorophenyl)piperidine-1-carbonyl]pyridine-2-sulfonamide]"
8,≥ 50,"Cc1cc(F)ccc1Nc1c(C(=O)N2CCC(c3ccc(F)cc3)CC2)cnc(S(=O)(=O)Nc2c(C)noc2C)c1Cl [Compound 189, 3-chloro-N-(3,5-dimethylisoxazol-4-yl)-4-(4-fluoro-2-methylphenylamino)-5-[4-(4-fluorophenyl)piperidine-1-carbonyl]pyridine-2-sulfonamide]"
9,≥ 50,"CCNC(=O)NS(=O)(=O)c1cc(Nc2cc(C)ccc2Cl)c(C(=O)N2CCC(c3ccc(F)cc3)CC2)cn1 [Compound 161, 4-(2-chloro-5-methylphenylamino)-N-(ethylcarbamoyl)-5-[4-(4-fluorophenyl)piperidine-1-carbonyl]pyridine-2-sulfonamide]"
10,≥ 50,"NS(=O)(=O)c1ncc(C(=O)N2CCC3(CC2)COc2ccccc23)c(NC2(c3ccccc3)CC2)c1Cl [Compound 297, 3-chloro-4-(1-phenylcyclopropylamino)-5-(2H-spiro[benzofuran-3,4′-piperidin]-1′-ylcarbonyl)pyridine-2-sulfonamide]"
11,≥ 50,"Cc1cc(F)ccc1Nc1c(C(=O)N2CCC(c3ccc(F)cc3)CC2)cnc(S(=O)(=O)Nc2ccon2)c1Cl [Compound 190, 3-chloro-4-(4-fluoro-2-methylphenylamino)-5-[4-(4-fluorophenyl)piperidine-1-carbonyl]-N-(isoxazol-3-yl)pyridine-2-sulfonamide]"
12,≥ 50,"Cc1c(Nc2cc(S(N)(=O)=O)ncc2C(=O)N2CCC(c3ccc(F)cc3)CC2)cccc1C(F)(F)F [Compound 61, 5-[4-(4-fluorophenyl)piperidine-1-carbonyl]-4-[2-methyl-3-(trifluoromethyl)phenylamino]pyridine-2-sulfonamide]"
13,≥ 50,"COc1ccc(Cl)cc1Nc1cc(S(N)(=O)=O)ncc1C(=O)N1CCC(c2ccc(F)cc2)CC1 [Compound 69, 4-(5-chloro-2-methoxyphenylamino)-5-[4-(4-fluorophenyl)piperidine-1-carbonyl]pyridine-2-sulfonamide]"
14,≥ 50,"Cc1cc(F)ccc1Nc1cc(S(=O)(=O)NC(=O)NC2CC2)ncc1C(=O)N1CCC(c2ccc(F)cc2)CC1 [Compound 172, N-(cyclopropylcarbamoyl)-4-(4-fluoro-2-methylphenylamino)-5-[4-(4-fluorophenyl)piperidine-1-carbonyl]pyridine-2-sulfonamide]"
15,≥ 50,"COc1ccc(C)c(Nc2cc(S(N)(=O)=O)ncc2C(=O)N2CCC(c3ccc(F)cc3)CC2)c1 [Compound 93, 5-[4-(4-fluorophenyl)piperidine-1-carbonyl]-4-(5-methoxy-2-methylphenylamino)pyridine-2-sulfonamide]"
16,≥ 50,"NS(=O)(=O)c1ncc(C(=O)N2CCC(c3ccc(F)cc3)CC2)c(Nc2ccc(OC(F)F)cc2)c1Cl [Compound 312, 3-chloro-4-[4-(difluoromethoxy)phenylamino]-5-[4-(4-fluorophenyl)piperidine-1-carbonyl]pyridine-2-sulfonamide]"

# Reference: patent publication US9701689B2, “Substituted pyridines and pyridazines as CCR10 receptor inhibitors” (KYOWA HAKKO KIRIN CO., LTD., priority 2012, dated 2017)
